Data set [1] has as its target T1, cloned hTRPM8 channel (human TRPM8 gene, expressed in CHO cells) (Homo sapiens, UniProt Q7Z2W7).
T1 construct: host or cells: CHO cells
Briefly: TRPM8 agonist activity, Fluo-8 calcium FLIPR assay. The format is cell-based. The conditions noted are these: for Relative Potency to L-menthol: from TRPM8 EC50, menthol = 1.0; for Potency relative to menthol / EC50: p-menthane compounds, Table 8; for EC50: 95% limits printed in line below. On the procedure: In the first set of data, the potency and in vitro effects of test compounds were evaluated on cloned hTRPM8 channel (encoded by the human TRPM8 gene, expressed in CHO cells) using a Fluo-8 calcium kit and a Fluorescence Imaging Plate Reader (FLIPR^TETRATM) instrument. […] Test solutions were in HEPES-buffered saline, 384-well plates, and placed into the FLIPR instrument (Molecular Devices Corporation, Union City, Calif., USA). […] The test cells were Chinese Hamster Ovary (CHO) cells stably transfected with human TRPM8 cDNAs. The concentration-response data were analyzed via FLIPR Control software and fitted to a Hill equation for the EC50.

The test system of data set [2] is Oral Cavity and Pharynx. Briefly: Study 2: sensory qualities of compounds applied to oral cavity and pharynx. The format is in vivo, human. The note with it: for sensations produced (cooling intensity, cold discomfort, adverse taste): ~0.8 mL per dose to base of tongue, four volunteers. The protocol:
Tests were on four volunteers, with 3 to 5 trials per substance. Compounds were prepared in cherry-flavored Shaped-Gel at 5 mg/mL and administered ˜0.8 mL per dose with a 2 mL plastic vial to the base of the tongue. The subjects asked to rate the sensations for cooling intensity, cold discomfort and adverse taste.

For data set [3], the target named is T2, TRPV1 channels (human TRPV1 gene expressed in HEK293 cells) (Homo sapiens, UniProt Q8NER1).
T2 construct: expressed in transfected cells; host or cells: HEK293 cells
T2 sequence (Q8NER1 whole entry): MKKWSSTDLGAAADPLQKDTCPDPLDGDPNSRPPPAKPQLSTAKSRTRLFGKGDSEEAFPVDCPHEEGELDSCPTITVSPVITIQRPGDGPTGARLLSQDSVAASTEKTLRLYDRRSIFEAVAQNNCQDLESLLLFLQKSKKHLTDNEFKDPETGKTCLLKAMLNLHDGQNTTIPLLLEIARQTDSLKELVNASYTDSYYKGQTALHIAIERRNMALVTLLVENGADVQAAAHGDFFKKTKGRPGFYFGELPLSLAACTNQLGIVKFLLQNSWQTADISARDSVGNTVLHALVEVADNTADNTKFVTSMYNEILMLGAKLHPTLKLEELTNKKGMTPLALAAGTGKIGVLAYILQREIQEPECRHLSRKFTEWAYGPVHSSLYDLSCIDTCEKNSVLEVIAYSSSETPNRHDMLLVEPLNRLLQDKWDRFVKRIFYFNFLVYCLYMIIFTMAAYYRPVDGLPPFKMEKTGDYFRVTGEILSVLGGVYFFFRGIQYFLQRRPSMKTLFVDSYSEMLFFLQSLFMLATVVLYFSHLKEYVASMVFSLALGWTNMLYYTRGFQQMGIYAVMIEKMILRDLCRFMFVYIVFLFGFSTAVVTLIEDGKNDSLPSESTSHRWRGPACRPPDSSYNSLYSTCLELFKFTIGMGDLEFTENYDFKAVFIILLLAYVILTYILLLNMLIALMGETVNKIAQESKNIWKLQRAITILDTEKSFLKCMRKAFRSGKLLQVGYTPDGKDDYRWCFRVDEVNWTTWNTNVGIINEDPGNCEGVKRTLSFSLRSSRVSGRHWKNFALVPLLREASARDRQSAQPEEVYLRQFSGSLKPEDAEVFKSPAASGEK
The conditions noted are these: data in Yang et al. BMC Ophthalmology 17:101 and Wei US 9,956,232; cited from earlier work.

The target in data set [4] is T3, TRPA1 channels (human TRPA1 gene expressed in CHO cells) (Homo sapiens, UniProt O75762).
T3 construct: expressed in transfected cells; host or cells: CHO cells
T3 sequence (O75762 whole entry): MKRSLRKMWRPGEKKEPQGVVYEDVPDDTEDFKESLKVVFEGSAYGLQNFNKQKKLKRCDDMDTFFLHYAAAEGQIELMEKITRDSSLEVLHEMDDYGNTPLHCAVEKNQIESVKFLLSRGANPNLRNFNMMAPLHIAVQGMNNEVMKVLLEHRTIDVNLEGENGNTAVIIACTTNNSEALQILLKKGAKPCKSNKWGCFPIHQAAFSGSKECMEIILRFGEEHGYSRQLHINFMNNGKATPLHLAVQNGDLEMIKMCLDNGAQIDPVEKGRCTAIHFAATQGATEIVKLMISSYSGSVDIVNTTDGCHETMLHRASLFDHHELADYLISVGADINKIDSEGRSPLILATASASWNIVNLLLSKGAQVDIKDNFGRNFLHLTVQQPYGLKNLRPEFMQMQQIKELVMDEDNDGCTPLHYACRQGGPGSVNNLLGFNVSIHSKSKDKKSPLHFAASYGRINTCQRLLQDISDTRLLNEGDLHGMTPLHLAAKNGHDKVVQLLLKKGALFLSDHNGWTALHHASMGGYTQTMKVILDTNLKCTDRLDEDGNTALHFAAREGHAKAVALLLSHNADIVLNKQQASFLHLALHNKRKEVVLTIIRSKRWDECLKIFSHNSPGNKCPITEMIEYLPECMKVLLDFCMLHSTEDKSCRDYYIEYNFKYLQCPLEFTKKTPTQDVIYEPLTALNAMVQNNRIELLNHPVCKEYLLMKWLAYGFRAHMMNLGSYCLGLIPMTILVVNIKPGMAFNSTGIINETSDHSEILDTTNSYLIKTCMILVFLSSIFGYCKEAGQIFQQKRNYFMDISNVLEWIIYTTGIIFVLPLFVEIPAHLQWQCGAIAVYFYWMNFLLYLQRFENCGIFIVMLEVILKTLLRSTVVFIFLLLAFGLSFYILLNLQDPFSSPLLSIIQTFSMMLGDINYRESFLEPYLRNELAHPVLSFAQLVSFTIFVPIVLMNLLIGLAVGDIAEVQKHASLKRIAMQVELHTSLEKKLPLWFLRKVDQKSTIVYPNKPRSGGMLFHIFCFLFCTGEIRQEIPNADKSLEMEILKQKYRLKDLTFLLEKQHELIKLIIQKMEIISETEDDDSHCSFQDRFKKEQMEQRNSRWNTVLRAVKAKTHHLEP
The note with it: data in Yang et al. BMC Ophthalmology 17:101 and Wei US 9,956,232; cited from earlier work.

The next data set has as its system Eyelids Surfaces. The data set is described as follows: Cooling on eyelid surfaces. The conditions noted are these: p-menthane compounds, Table 8. The data set is classed as in vivo.
Data set [5] deals with throat (Adam's apple, jugular notch, upper chest). The format is in vivo, human. Also noted: key to Jugular Notch / Sternum: cooling rated on a 0-3 scale; Onset: unit not given here. The note with it: for Duraton: duration of cooling after swallowing Shaped-Gel; for Discomfort: in vivo; for Onset: onset of cooling after swallowing Shaped-Gel, no unit in head (min); for Jugular Notch: cooling felt at jugular notch. On the procedure: Shaped-Gel having total weight of 0.4 to 1.2 g containing 0.4 to 1.5% by weight (5 mg/g to 15 mg/g) are prepared and tested. The following examples illustrate the invention, but are not intended to limit the scope of the present invention. A Shaped-Gel in accordance with the present invention was prepared with the following composition.
Shaped-Gels were prepared by these procedures. First step, the cooling agent was accurately weighed and place in a 60 mL plastic container. Then glycerol, water, and gelatin was added to the container and centrifuged for 2 min in a SpeedMixer (FlackTek, Inc.) at 3000 rpm. Then gelatin powder was added and the mixture centrifuged for 3 min. The container was warmed by placing it in a beaker containing hot water (80-85° C.) for 15 min. The container was then centrifuged for 5 min. The liquid mix was cooled and dispensed onto silicon molds with a plastic dropper, and placed in a refrigerator. After one hour, the gels were solidified, removed from the mold with a plastic tweezer, weighed and placed on wax paper and later stored in blister pockets. […] In preliminary studies, the shape of the Shaped-Gel was varied. Square, rectangular, spherical, hemispherical, toroidal, and pentagram Shaped-Gels were prepared at sizes ranging from 0.4 to 1.2 g. A flat shape wherein the shortest diameter was about 20% of the longest axis was preferred because it could be placed flat on the back of the tongue. A Shaped-Gel shaped as a rectangular prism of 2.75 mm×15 mm×15 mm=0.63 cm3 and weighing ˜0.6 g was acceptable to subjects. A toroid, much like a “LiveSaver” mint was also acceptable if the size was ˜0.8 g. Test Panel: The volunteers for testing the Shaped-Gel were six subjects, four males and two females, aged 50 to 76 years. Each Shaped-Gel was tested for at least four trials in at least three subjects. The concentration of the cooling agent in the Shaped-Gel varied from 0.5 to 2%. The duration of observation for each trial usually lasted for not more than 1.5 hours. Subjects were instructed to swallow the Shaped-Gel with a sip of […] water. Cooling sensations were rated on a scale of 0, 1, 2, 3, at intervals of 3 min, 5 min, and then at 10 min intervals. If a cooling value exceeded 2, the subject noted whether the cooling was felt at the level of the Adam's apple, jugular notch or upper chest. Ancillary effects were also recorded.

The test system of the next data set is Philtrum Skin. The data set is described as follows: Cooling on philtrum skin. The format is in vivo. The conditions noted are these: p-menthane compounds, Table 8.
For data set [6], the system named is Oral Cavity and Pharynx. Briefly: Study 2: sensory qualities of compounds applied to oral cavity and pharynx. The format is in vivo, human.
The nature of data set [7]: Water solubility of 1-dialkylphosphinoylalkanes. The conditions noted are these: R1R2R3P=O, by R1,R2 and R3. The format is physicochemical.

Structures are written as SMILES. In brackets after ≈: the same amount, converted by molar mass. Entries after “also recorded” stand apart in the source; their conditions may differ. Like-named read-outs stand apart in the source and are kept apart here.

T1 sequence (Q7Z2W7 whole entry): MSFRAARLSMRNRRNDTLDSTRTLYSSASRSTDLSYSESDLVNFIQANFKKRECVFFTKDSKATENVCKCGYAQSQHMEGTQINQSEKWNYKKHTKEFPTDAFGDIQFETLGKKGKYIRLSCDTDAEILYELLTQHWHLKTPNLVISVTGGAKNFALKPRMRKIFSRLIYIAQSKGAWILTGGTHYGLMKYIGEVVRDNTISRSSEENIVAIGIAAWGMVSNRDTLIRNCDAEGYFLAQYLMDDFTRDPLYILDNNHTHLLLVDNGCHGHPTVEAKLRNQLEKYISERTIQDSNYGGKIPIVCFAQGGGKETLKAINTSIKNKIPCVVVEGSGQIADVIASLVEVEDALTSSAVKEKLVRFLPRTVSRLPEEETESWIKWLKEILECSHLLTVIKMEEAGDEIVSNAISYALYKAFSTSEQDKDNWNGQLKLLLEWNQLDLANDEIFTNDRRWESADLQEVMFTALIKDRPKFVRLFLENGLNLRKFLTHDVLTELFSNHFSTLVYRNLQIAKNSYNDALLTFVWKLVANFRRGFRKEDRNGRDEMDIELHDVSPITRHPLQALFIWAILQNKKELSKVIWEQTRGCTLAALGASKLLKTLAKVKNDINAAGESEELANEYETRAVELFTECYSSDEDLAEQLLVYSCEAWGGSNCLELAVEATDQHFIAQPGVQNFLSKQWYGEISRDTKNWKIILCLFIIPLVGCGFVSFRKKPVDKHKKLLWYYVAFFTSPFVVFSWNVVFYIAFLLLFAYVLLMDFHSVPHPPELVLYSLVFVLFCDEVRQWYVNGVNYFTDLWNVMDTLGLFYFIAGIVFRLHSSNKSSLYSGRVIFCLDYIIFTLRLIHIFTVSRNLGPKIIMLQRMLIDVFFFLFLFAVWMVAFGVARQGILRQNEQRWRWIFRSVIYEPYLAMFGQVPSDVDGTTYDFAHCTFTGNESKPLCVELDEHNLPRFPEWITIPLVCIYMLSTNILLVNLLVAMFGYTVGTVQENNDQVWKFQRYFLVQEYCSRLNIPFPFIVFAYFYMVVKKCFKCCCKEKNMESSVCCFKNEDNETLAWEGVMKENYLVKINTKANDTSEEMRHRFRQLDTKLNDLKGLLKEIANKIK

Consider `CCCCCP(=O)(CC(C)C)CC(C)C` [DAPA-3-1, 1-di(iso-butyl) phosphinoyl-pentane], for which, in data set [1], the “TRPM8 potency / bioactivity in words” value is “significant loss of bioactivity” and the “Relative Potency to L-menthol” value was 0.2.

Take `CCCCCCCCP(=O)(C(C)C)C(C)C` [DIPA-1-8, 1-Di(isopropyl)-phosphinoyl-octane]: the “Relative Potency to L-menthol” value in data set [1] is listed as 5.4. In addition, in the data set with Oral Cavity and Pharynx [2] (5 mg/mL), the “unpleasant taste, description” value was ““metallic”, “organic solvent-like”, and “harsh””; the “sensations produced (cooling intensity, cold discomfort, adverse taste)” value (from here on “sensations produced”) was “cold, icy cold, and adverse tastes”. Besides, the strong metallic taste entry with Oral Cavity and Pharynx [2] (in vivo) is on record as “present”. Also, the “selectivity: TRPM8 versus TRPV1” value in data set [3] is “Selectivity is also seen”. Further, the “selectivity: TRPM8 versus TRPA1” value in data set [4] was “Selectivity is also seen”.

With `CCCCCCCP(=O)(C(C)CC)C(C)CC` (stereo not drawn) [DAPA-2-7, 1-Di(sec-butyl)-phosphinoyl-heptane], in data set [1], the “Relative Potency to L-menthol” value is 3.4. In the data set on Oral Cavity and Pharynx [2] (5 mg/mL), the “unpleasant taste, description” value was ““metallic”, “organic solvent-like”, and “harsh””; the “sensations produced” value is “cold, icy cold, and adverse tastes”.

The EC50 is the concentration needed to bring the measured effect to its halfway point. In the case of `CC(C)OC(=O)CNC(=O)[C@@H]1C[C@H](C)CC[C@H]1C(C)C` [Ax-8], in the data set with Eyelids Surfaces, the “Eyelids Surfaces” value is recorded as 300 min. Further, in data set [1], the “Potency relative to menthol” value stood at 7.6 and the EC50 was determined as 500 nM. For the same molecule, in data set [5], the Duraton stood at 35 min, the Discomfort entry was “yes” and the Onset stood at 5. The “Philtrum Skin” value in the data set on Philtrum Skin was 27 min.

Take `CC(C)OC(=O)C(C)NC(=O)[C@@H]1C[C@H](C)CC[C@H]1C(C)C` (stereo partly drawn) [D-Ala-OiPr]: the “Eyelids Surfaces” value in the data set on Eyelids Surfaces turned out to be 360 min. Also, in data set [1], the “Potency relative to menthol” value was 14.6. Moreover, the “Philtrum Skin” value in the data set on Philtrum Skin is on record as 34 min.

Regarding `CCCCCCP(=O)(C(C)CC)C(C)CC` (stereo not drawn) [DAPA-2-6, 1-Di(sec-butyl)-phosphinoyl-hexane], the “Relative Potency to L-menthol” value in data set [1] turned out to be 4.7. Besides, in the data set with Oral Cavity and Pharynx [2] (5 mg/mL), the “unpleasant taste, description” value is ““metallic”, “organic solvent-like”, and “harsh””; the “sensations produced” value was “cold, icy cold, and adverse tastes”. Also, the “Adam's Apple” value in data set [5] (cooling felt at Adam's apple, Shaped-Gel) is given as “+++ icy”. The “Jugular Notch” value in data set [5] (Shaped-Gel) is recorded as “++ icy”. Besides, in [5], the Duraton amounted to 30 min, the Discomfort result is “yes” and the Onset is on record as less than 3.

As to `CCCCCCCP(=O)(C(C)C)C(C)C` [DIPA-1-7, 1-Di(isopropyl)-phosphinoyl-heptane], the “Relative Potency to L-menthol” value in data set [1] is listed as 5.4. Also, in the data set with Oral Cavity and Pharynx [2] (5 mg/mL), the cold discomfort result was “icy cold; also recorded: icy pain in the back of the throat”; the “unpleasant taste, description” value was ““metallic”, “organic solvent-like”, and “harsh””; the “sensations produced” value was “cold, icy cold, and adverse tastes”. Also, the strong metallic taste result in the data set with Oral Cavity and Pharynx [2] (in vivo) is recorded as “present”. Besides, in data set [3], the “selectivity: TRPM8 versus TRPV1” value is “Selectivity is also seen”. Also, in data set [4], the “selectivity: TRPM8 versus TRPA1” value is reported as “Selectivity is also seen”.

Consider `CCCCCCCCCP(=O)(C(C)C)C(C)C` [DIPA-1-9, 1-Di(isopropyl)-phosphinoyl-nonane], for which, in data set [1], the “Relative Potency to L-menthol” value came out at 4.0. The “sensations produced” value in the data set on Oral Cavity and Pharynx [2] (5 mg/mL) was “coolness and cold which was well-tolerated”. In the data set on Oral Cavity and Pharynx [2] (in vivo), the “general sense of refreshment in the throat, persistence” value was no less than 3 h and the strong metallic taste entry is reported as “does not have a strong metallic taste”. Moreover, the “icy cold, pain or discomfort at increased concentration” value in the data set on Oral Cavity and Pharynx [6] (5, 8 to 15 mg/mL, 0.8 mL per dose) is on record as “no pain or discomfort; also recorded: did not produce icy cold or pain”. Besides, the “sensation in the oropharynx and esophagus” value in the data set with Oral Cavity and Pharynx [6] (optimized concentrations of 5 to 10 mg/mL) was “perfect cool in the oropharynx and esophagus but without cold discomfort”. The “selectivity: TRPM8 versus TRPV1” value in data set [3] is “selective for TRPM8 and not TRPVI and TRPA1”. Further, the “onset of sensation of coolness in the throat” value in data set [5] (Shaped-Gel applied to base of tongue) amounted to 3 min. In [5] (both, human), this molecule gave a Discomfort of 0. In data set [5], this molecule had a Duraton of roughly 60 min and an Onset of less than 3. In data set [4], the “selectivity: TRPM8 versus TRPA1” value was “selective for TRPM8 and not TRPVI and TRPA1”.

In data set [5], `CC1CCC(C(C)C)C(C(=O)OCC(O)CO)C1` (stereo not drawn) [WS-30] had a Duraton of 25 min, a Discomfort of 0 and an Onset of roughly 3.

On to `CCC(C)P(=O)(CCC(C)C)C(C)CC` (stereo not drawn) [DAPA-3-2, 1-Di(sec-butyl)-phosphinoyl-3-methyl-butane], for which, in data set [1], the “TRPM8 potency / bioactivity in words” value is “significant loss of bioactivity” and the “Relative Potency to L-menthol” value is on record as 0.9.

In the case of `CCCCCP(=O)(C(C)CC)C(C)CC` (stereo not drawn) [DAPA-2-5, 1-di-sec-butyl-phosphorylpentane], the “Relative Potency to L-menthol” value in data set [1] came out at 2.2.

`CCCCP(=O)(C(C)CC)C(C)CC` (stereo not drawn) [DAPA-2-4, 1-Di(sec-butyl)-phosphinoyl-butane]: the “Relative Potency to L-menthol” value in data set [1] is 0.3.

For `CCOC(=O)CNC(=O)[C@@H]1C[C@H](C)CC[C@H]1C(C)C` [WS-5], in the data set on Eyelids Surfaces, the “Eyelids Surfaces” value was 15 min. Moreover, in [1], the “Potency relative to menthol” value worked out at 10.6 and the EC50 worked out at 360 nM. Further, the Discomfort in data set [5] (both, human) is given as 0. Moreover, in [5], the Duraton was 25 min and the Onset is given as roughly 3. For the same molecule, in the data set with Philtrum Skin, the “Philtrum Skin” value was found to be 24 min.

On to `COc1ccc(NC(=O)[C@@H]2C[C@H](C)CC[C@H]2C(C)C)cc1` [WS-12], for which the “Jugular Notch” value in [5] (Shaped-Gel) is given as 0. Moreover, the Sternum in data set [5] (cooling felt at sternum, Shaped-Gel) was 0. In data set [5], this molecule showed a Duraton of 20 min, a Discomfort of 0 and an Onset of 5.

In the case of `CCCCCCCCP(=O)(C(C)CC)C(C)CC` (stereo not drawn) [DAPA-2-8, 1-Di(sec-butyl)-phosphinoyl-octane], the “Relative Potency to L-menthol” value in data set [1] is given as 2.9. In the data set with Oral Cavity and Pharynx [2] (5 mg/mL), the “unpleasant taste, description” value was ““metallic”, “organic solvent-like”, and “harsh””.

In general, solubility refers to the concentration that dissolves in the medium under given conditions. With `CCCCCCC[P@@](=O)(C(C)C)C(C)CC` (stereo partly drawn) [3,4-7, 1-(Isopropyl-sec-butyl)-phosphinoyl-heptane], the solubility in data set [7] is 20 mg/mL (≈ 81.2 mM).

Regarding `CCOC(=O)C(C)NC(=O)[C@@H]1C[C@H](C)CC[C@H]1C(C)C` (stereo partly drawn) [D-Ala-OEt], the “Eyelids Surfaces” value in the data set on Eyelids Surfaces is on record as 180 min. The “Potency relative to menthol” value in [1] was determined as 14.0. In the data set on Philtrum Skin, the “Philtrum Skin” value amounted to 103 min.

For the molecule `CCCCCP(=O)(C(C)C)C(C)C` [DIPA-1-5, 1-Di(isopropyl)-phosphinoyl-pentane], the “Relative Potency to L-menthol” value in [1] stood at 0.7.

Take `CCCCCCP(=O)(C(C)C)C(C)C` [DIPA-1-6, 1-Di(isopropyl)-phosphinoyl-hexane]: the “Relative Potency to L-menthol” value in [1] was 1.6.

(Values after US20220378807A1, “DELIVERY OF A COOLING AGENT TO THE PHARYNGEAL-ESOPHAGEAL SURFACE” (priority 2019, published 2022).)
